Assay results published in US5441932A, “Sugar compounds for inhibition of the biosynthesis of sugar chains containing sialic acid” (priority 1992, dated 1995).
Entries after “also recorded” stand apart in the source; their conditions may differ.

What was measured:
[1] = target: β-galactoside-α-2, 6-sialyltransferase; test: Inhibition of β-galactoside-α-2,6-sialyltransferase enzyme activity (biosynthesis of sugar chains containing sialic acid, test system of Paulson et al.); assay type: biochemical; conditions: β-galactoside-α-2,6-sialyltransferase 1×10^-6 units, 0.075 nmol CMP-14C sialic acid, 3 mM β-methyllactosaminide, pH 6.5, 37° C., 10 minutes; read-out: 50% activity inhibition concentration
Description: In other words, the tests were conducted using a test system of the biosynthesis of sialic acid-sugar chains containing sialic acid which was reported by Paulson et al.
A tester solution was prepared containing the following respective reagents in 50 μl of final contents:
100 mM sodium cacodylate buffer solution (pH 6.5);
0.075 nmol cytidine-monophosphate-14C sialic acid;
3 mM β-methyllactosaminide;
A specimen compound was added in 50 μl of the tester solution, and, with addition of 1×10^-6 units of β-galactoside-α-2, 6-sialyltransferase commercially available, the mixture was left to stand at 37° C. for 10 minutes. 1 ml of 5 mM phosphoric acid buffer solution was added to stop the reaction. Then the solution was passed through an anion-exchange resin column (Dowex-1X8, phosphoric acid type, 1 ml) to remove unreacted cytidine-monophosphate-14C sialic acid. Further, the column was washed with 1 ml of 5 mM phosphoric acid buffer solution to recover radioactive sialic acid-containing sugar chains. The radioactivity was measured by a liquid scintillation counter.
The thus-measured radioactivity was shown by percentage to the radioactivity of untreated section not including the specimen compound, which was defined as inhibition activity.

[2] = Solubility (physical properties); assay type: physicochemical; conditions: qualitative, in words
[3] = Stability in acid (physical properties); assay type: physicochemical

“2-acetamide-2-deoxy-4-O-(6-deoxy-β-D-galactopyranosyl)-β-D-glucopyranosylated ovalbumin [Sugar compound C, sugar compound represented by the aforementioned formula (1) in which R^1 is ovalbumin and R^2 is hydrogen]” showed an IC50 [1] of 10 µM.

For “2-acetamide-2-deoxy-4-O-(6-deoxy-β-D-galactopyranosyl)-β-D-glucopyranosylated α2-macroglobulin [Sugar compound F]”, the IC50 [1] was 1 µM and the Solubility [2] was “Soluble in water and various buffer solutions. Hardly soluble in organic solvents”.

With “2-acetamide-2-deoxy-4-O-( 6-deoxy-β-D-galactopyranosyl)-β -D-glucopyranosylated fetuin [Sugar compound D]” the IC50 [1] was 4.2 µM and the Solubility [2] was “Soluble in water and various buffer solutions. Hardly soluble in organic solvents”.

With `CO[C@@H]1O[C@H](CO)[C@@H](O[C@@H]2O[C@H](C)[C@H](O)[C@H](O)[C@H]2O)[C@H](O)[C@H]1NC(C)=O` [Sugar compound A, methyl-2-acetamide-2-deoxy-4-O-(6-deoxy-β-D-galactopyranosyl)-β-D-glucopyranoside] the Solubility [2] was “Soluble in water, alkaline solutions, acid solutions, various buffer solutions, methanol, and ethanol. Hardly soluble in hexane and in chloroform”.

With `CC(=O)N[C@H]1C(O)O[C@H](CO)[C@@H](O[C@@H]2O[C@H](C)[C@H](O)[C@H](O)[C@H]2O)[C@@H]1O` (stereo partly drawn) [Sugar compound B, α- and β-2-acetamide-2-deoxy-4-O-(6-deoxy-β-D-galactopyranosyl)-D-glucose] the Solubility [2] was “Soluble in water, alkaline solutions, acid solutions, various buffer solutions, methanol, and ethanol. Hardly soluble in hexane and in chloroform”.

For `CO[C@@H]1O[C@H](CO)[C@@H](O[C@@H]2O[C@H](COC3CCCCO3)[C@H](O)[C@H](O)[C@H]2O)[C@H](O)[C@H]1NC(C)=O` (stereo partly drawn) [Sugar compound G, methyl-2-acetamide-2-deoxy-4-O-(6-O-tetrahydropyranyl-β-D-galactopyranosyl)-β-D-glucopyranoside], the Solubility [2] was “Soluble in water, alkaline solutions, acid solutions, various buffer solutions, methanol, and ethanol. Hardly soluble in hexane and in chloroform”.

For `CO[C@@H]1O[C@H](CO)[C@@H](O[C@@H]2O[C@H](CS)[C@H](O)[C@H](O)[C@H]2O)[C@H](O)[C@H]1NC(C)=O` [Sugar compound H, methyl-2-acetamide-2-deoxy-4-O-(6-mercapto-β-D-galactopyranosyl)-β-D-glucopyranoside], the Solubility [2] was “Soluble in water, alkaline solutions, acid solutions, various buffer solutions, methanol, and ethanol. Hardly soluble in hexane and in chloroform”.

With `C[C@H]1O[C@H](OP(=O)(O)OP(=O)(O)OC[C@H]2O[C@@H](n3ccc(=O)[nH]c3=O)[C@H](O)[C@@H]2O)[C@H](O)[C@@H](O)[C@H]1O` [intermediate b, uridine 5'-diphosphate-6-deoxy-D-galactose] the Solubility [2] was “Soluble in water, alkaline solutions, and various buffer solutions; also recorded: Hardly soluble in organic solvents” and the Decomposition in acid [3] was “Decomposed in acid”.

For `CO[C@@H]1O[C@H](COC(C)=O)[C@@H](O[C@@H]2O[C@@H]3COC(c4ccccc4)O[C@@H]3[C@H](OC(C)=O)[C@H]2OC(C)=O)[C@H](OC(C)=O)[C@H]1NC(C)=O` (stereo partly drawn) [intermediate c, methyl-2-acetamide-3,6-di-O-acetyl-2-deoxy-4-O-(2,3-di-O-acetyl-4,6-O-benzylidene-β-D-galactopyranosyl)-β-D-glucopyranoside], the Solubility [2] was “Soluble in chloroform, methanol, and ethanol. Hardly soluble in water and various buffer solutions”.

For `CO[C@@H]1O[C@H](COC(C)=O)[C@@H](O[C@@H]2O[C@H](CO)[C@H](O)[C@H](OC(C)=O)[C@H]2OC(C)=O)[C@H](OC(C)=O)[C@H]1NC(C)=O` [intermediate d, methyl-2-acetamide-3,6-di-O-acetyl-2-deoxy-4-O-(2,3-di-O-acetyl-β-D-galactopyranosyl)-β-D-glucopyranoside], the Solubility [2] was “Soluble in chloroform, methanol, and ethanol. Hardly soluble in water and various buffer solutions”.

With `CO[C@@H]1O[C@H](COC(C)=O)[C@@H](O[C@@H]2O[C@H](CO[Si](C)(C)C(C)(C)C)[C@H](OC(C)=O)[C@H](OC(C)=O)[C@H]2OC(C)=O)[C@H](OC(C)=O)[C@H]1NC(C)=O` [intermediate e, methyl-2-acetamide-3,6-di-O-acetyl-2-deoxy-4-O-(2,3,4-tri-O-acetyl-6-O-t-butyldimethylsilyl-β-D-galactopyranosyl)-β-D-glucopyranoside] the Solubility [2] was “Soluble in chloroform, methanol, and ethanol. Hardly soluble in water and various buffer solutions”.

With `CO[C@@H]1O[C@H](COC(C)=O)[C@@H](O[C@@H]2O[C@H](CO)[C@H](OC(C)=O)[C@H](OC(C)=O)[C@H]2OC(C)=O)[C@H](OC(C)=O)[C@H]1NC(C)=O` [intermediate f, methyl-2-acetamide-3,6-di-O-acetyl-2-deoxy-4-O-(2,3,4-tri-O-acetyl-β-D-galactopyranosyl)-β-D-glucopyranoside] the Solubility [2] was “Soluble in chloroform, methanol, and ethanol. Hardly soluble in water and various buffer solutions”.

With `CO[C@@H]1O[C@H](COC(C)=O)[C@@H](O[C@@H]2O[C@H](COC3CCCCO3)[C@H](OC(C)=O)[C@H](OC(C)=O)[C@H]2OC(C)=O)[C@H](OC(C)=O)[C@H]1NC(C)=O` (stereo partly drawn) [intermediate g, methyl-2-acetamide-3,6-di-O-acetyl-2-deoxy-4-O-(2,3,4-tri-O-acetyl-6-O-tetrahydropyranyl-β-D-galactopyranosyl)-β-D-glucopyranoside] the Solubility [2] was “Soluble in chloroform, methanol, and ethanol. Hardly soluble in water and various buffer solutions”.

In the case of `CO[C@@H]1O[C@H](COC(C)=O)[C@@H](O[C@@H]2O[C@H](COS(=O)(=O)c3ccc(C)cc3)[C@H](OC(C)=O)[C@H](OC(C)=O)[C@H]2OC(C)=O)[C@H](OC(C)=O)[C@H]1NC(C)=O` [intermediate h, methyl-2-acetamide-3,6-di-O-acetyl-2-deoxy-4-O-(2,3,4-tri-O-acetyl-6-O-p-toluenesulfonyl-β-D-galactopyranosyl)-β-D-glucopyranoside], the Solubility [2] is reported as “Soluble in chloroform, methanol, and ethanol. Hardly soluble in water and various buffer solutions”.

With `CO[C@@H]1O[C@H](COC(C)=O)[C@@H](O[C@@H]2O[C@H](CSC(C)=O)[C@H](OC(C)=O)[C@H](OC(C)=O)[C@H]2OC(C)=O)[C@H](OC(C)=O)[C@H]1NC(C)=O` [intermediate i, methyl-2-acetamide-3,6-di-O-acetyl-2-deoxy-4-O-(2,3,4-tri-O-acetyl-6-S-acetyl-6-deoxy-β-D-galactopyranosyl)-β-D-glucopyranoside] the Solubility [2] was “Soluble in chloroform, methanol, and ethanol. Hardly soluble in water and various buffer solutions”.

B1: 2-acetamide-2-deoxy-4-O-(6-deoxy-β-D-galactopyranosyl)-β-D-glucopyranosylated glycophorin (conjugate, UniProt P02724 20-150, looked up)
Glycophorin-A: LSTTEVAMHTSTSSSVTKSYISSQTNDTHKRDTYAATPRAHEVSEISVRTVYPPEEETGERVQLAHHFSEPEITLIIFGVMAGVIGTILLISYGIRRLIKKSPSDVKPLPSPDTDVPLSSVEIENPETSDQ
modifications: glycosylated with fucosyl-GlcNAc disaccharide
notes: sugar compound represented by the aforementioned formula (1) in which R^1 is glycophorin and R^2 is hydrogen
For B1, the IC50 [1] was 2.7 µM and the Solubility [2] was “Soluble in water and various buffer solutions. Hardly soluble in organic solvents”.

B2: 2-acetamide-2-deoxy-4-O-(6-deoxy-β-D-galactopyranosyl)-β-D-glucopyranosylated ovalbumin (conjugate, UniProt P01012 2-386, looked up)
Ovalbumin: GSIGAASMEFCFDVFKELKVHHANENIFYCPIAIMSALAMVYLGAKDSTRTQINKVVRFDKLPGFGDSIEAQCGTSVNVHSSLRDILNQITKPNDVYSFSLASRLYAEERYPILPEYLQCVKELYRGGLEPINFQTAADQARELINSWVESQTNGIIRNVLQPSSVDSQTAMVLVNAIVFKGLWEKAFKDEDTQAMPFRVTEQESKPVQMMYQIGLFRVASMASEKMKILELPFASGTMSMLVLLPDEVSGLEQLESIINFEKLTEWTSSNVMEERKIKVYLPRMKMEEKYNLTSVLMAMGITDVFSSSANLSGISSAESLKISQAVHAAHAEINEAGREVVGSAEAGVDAASVSEEFRADHPFLFCIKHIATNAVLFFGRCVSP
modifications: glycosylated with fucosyl-GlcNAc disaccharide
notes: sugar compound represented by the aforementioned formula (1) in which R^1 is ovalbumin and R^2 is hydrogen
For B2, the Solubility [2] was “Soluble in water and various buffer solutions. Hardly soluble in organic solvents”.
